Results as given in US20250222011A1, “DRUG TARGET FOR INHIBITING TUMOR, USE, AND ORAL DRUG” (CHI BIOTECH CO., LTD., priority 2024, published 2025).

What was measured:
nascent peptides = assay: Detection of nascent peptides (puromycin labelling, Western blotting); format: cell-based; settings: 1 mg/mL, FIG. 6
Method: Detection of nascent peptides: the cells were plated in a 6-well plate, with 200,000 cells in each well. After 24 h of adhesion, ATCA was added to make a working solution at a concentration of 1 mg/mL, while the control group was replaced with new medium. The experimental and control groups were treated for 2 h, 6 h, 12 h, 24 h, and 48 h separately, […], and cycloheximide was added to the positive control group for 10 min of treatment 25 min before sample collection. 10 μg/μL puromycin-labeled nascent peptide was added to all wells for 15 min, the medium was aspirated, the cells were washed twice with PBS, added with IP & WB lysis buffer to allow lysis on ice for 30 min, and centrifuged at 12,000 g for 20 min at 4° C. A resulting supernatant was transferred to a new centrifuge tube, 10 μg of protein was added to 5×SDS Loading Buffer, denatured in a 100° C. water bath for 10 min, and quantitatively detected by Western blotting. Western Blotting: the sample and molecular standard of pre-stained protein were loaded onto an SDS-PAGE gel (10 cm×10 cm) to allow electrophoresis at 100 V for 40 min. The proteins in SDS-PAGE were transferred to nitrocellulose membrane at 100 V, 230 mA within 1 h. After transfer, the nitrocellulose membrane was washed with 25 mL of TBS for 5 min at room temperature. […]

H1299 cells = assay: Transcriptome sequencing with KEGG pathway enrichment of down-regulated genes; format: cell-based, human; settings: 1 mg/mL ATCA, 48 h, FIG. 7
Method: 1 mg/mL ATCA was added to the culture medium of a T75 cell culture flask filled with three million of H1299 cells as a treatment group, and an equal volume of PBS was added as a control group. After ATCA treatment for 48 h, the cultured supernatant was discarded, and the cells were placed on ice, washed twice with pre-cooled PBS. The PBS was discarded, 5 mL of pre-cooled Trizol (total RNA extraction reagent) was added, mixed by shaking thoroughly. […]

ovarian cancer cells = assay: Apoptosis of ovarian cancer cells (other experiments); format: cell-based
normal lung cells HBE = assay: Apoptosis by Annexin V and propidium iodide staining, flow cytometry; format: cell-based; settings: 0.5 mg/mL ATCA
phosphorylated EIF2S1 = assay: Western blotting detection of EIF2A phosphorylation; format: cell-based; settings: 1 mM of ATCA for 48 h, FIG. 3
Method: Western Blotting method: the sample and molecular weight standard of pre-stained protein were loaded onto an SDS-PAGE gel (10 cm×10 cm) to allow electrophoresis at 100 V for 40 min. After treating for 1 h at 100 V, 230 mA, the protein in SDS-PAGE was transferred to a nitrocellulose membrane. After transfer, the nitrocellulose membrane was washed with 25 mL of TBS for 5 min at room temperature. The nitrocellulose membrane was placed in 25 mL of blocking buffer (TBST, 5% skim milk) and incubated at room temperature for 1 h. The membrane was washed three times with 15 mL TBST, 5 min each time. The membrane and phosphorylated EIF2S1 primary antibody (diluted at 1:1500) were placed in 10 mL of a primary antibody dilution buffer and incubated overnight at 4° C. with gentle shaking at certain intervals. The membrane was washed three times with 15 mL TBST, 5 min each time. A rabbit secondary antibody was prepared with 5% skim milk at a ratio of 1:2000 and incubated at room temperature for 1.5 h. The membrane was washed three times with 15 mL TBST, 5 min each time. The membrane was incubated with 10 mL of LumiGLO® (0.5 mL 20× LumiGLO®, 0.5 mL 20× peroxide, and 9.0 mL purified water) at room temperature for 1 min with gentle agitation at certain intervals. The excess developer on the membrane was drained (no drying), wrapped in plastic film, and then developed with a BIO-RAD developer.

Question: For `O=C(O)C1=CC(=C(c2ccc(O)c(C(=O)O)c2)c2ccc(O)c(C(=O)O)c2)C=CC1=O` [ATCA, aurintricarboxylic acid], which “protein synthesis (nascent peptides)” value (nascent peptides; 2 h to 12 h after adding the drug) is on record?
Answer: The value was “had not been significantly blocked”.

Question: And the “number of new peptide chains compared with that without the drug” value (nascent peptides; 24 h to 48 h after adding the drug)?
Answer: Its value is “significantly reduced”.

Question: And the “further significantly down-regulated pathways (KEGG enrichment)” value (H1299 cells)?
Answer: The value was “platinum drug-resistance, TGF-beta signaling pathway, signaling pathways regulating pluripotency of stem cells, and FoxO signaling pathway”.

Question: What about the “most significantly down-regulated pathway (KEGG enrichment)” value (H1299 cells) of the same compound?
Answer: Its value is “cell cycle”.

Question: And the “apoptosis of ovarian cancer cells” value (ovarian cancer cells)?
Answer: The value was “induce apoptosis”.

Question: What about the “apoptosis of normal lung cells HBE” value (normal lung cells HBE) of the same compound?
Answer: Its value is “did not show apoptosis”.

Question: And the EIF2S1 phosphorylation abundance (phosphorylated EIF2S1)?
Answer: Its EIF2S1 phosphorylation abundance is “did not affect its phosphorylation abundance”.
